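Where inhibition never reached the appropriate level, the endpoint shown equals the highest concentration tested. Otherwise, values were interpolated linearly from a five-concentration, 48-hour dose response in 96-well plates. At the TGI there is no net growth.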 A value given as a limit tells only on which side of the number the result lay.

For nine compounds, TGI results are on record in PubChem BioAssay (NCI).

Test systems include HCC-2998 colon; IGROV1 ovarian; A498 renal; U251 CNS; SW-620 colon; RPMI-8226 leukemia; HT29 colon; SK-MEL-28 melanoma; UACC-257 melanoma; T-47D breast; CAKI-1 renal; OVCAR-4 ovarian; HL-60(TB) leukemia; MDA-MB-231 breast; SR leukemia; CCRF-CEM leukemia; LOX IMVI melanoma; BT-549 breast.
Holding throughout (experiment): NCI-60 cell line screen, 48 h

`CC1(C)N=C(C(N)=O)c2ncn(N)c2N1`: the TGI in the assay with HCC-2998 colon, in the assay on IGROV1 ovarian, in the assay on A498 renal, with U251 CNS, in the assay on SW-620 colon and with RPMI-8226 leukemia was greater than 100 µM in each case. Further, the TGI in the assay with HT29 colon, in the assay with SK-MEL-28 melanoma, in the assay with UACC-257 melanoma, in the assay with T-47D breast, with CAKI-1 renal and in the assay on OVCAR-4 ovarian was greater than 100 µM in each case. Moreover, the TGI in the assay with HL-60(TB) leukemia, in the assay with MDA-MB-231 breast, in the assay on SR leukemia, with CCRF-CEM leukemia and in the assay with LOX IMVI melanoma was greater than 100 µM each time.
Turning to `CC(=O)N=C1N(/C=C2\C(=O)Oc3ccccc3C2=O)C(=O)/C(=C/c2ccc(OC(C)=O)cc2)N1C`, the TGI in the assay on HCC-2998 colon, in the assay with IGROV1 ovarian, in the assay on A498 renal, in the assay with U251 CNS, in the assay on SW-620 colon and in the assay on RPMI-8226 leukemia was greater than 100 µM each time. In addition, the TGI in the assay with HT29 colon, with SK-MEL-28 melanoma, with UACC-257 melanoma, in the assay with T-47D breast, in the assay on CAKI-1 renal and with OVCAR-4 ovarian was greater than 100 µM throughout. In addition, the TGI in the assay on HL-60(TB) leukemia, in the assay with MDA-MB-231 breast, with SR leukemia, with CCRF-CEM leukemia and with LOX IMVI melanoma was greater than 100 µM each time.
For `CC(O)c1cc2c(s1)C(=O)c1sccc1C2=O` (configuration not stated), the TGI worked out at 0.402 µM in the assay on HCC-2998 colon; 0.725 µM in the assay with IGROV1 ovarian; 0.429 µM in the assay on A498 renal; 0.597 µM in the assay on HT29 colon; 0.479 µM with SK-MEL-28 melanoma; 0.0358 µM in the assay with UACC-257 melanoma. In addition, the TGI with T-47D breast is 0.879 µM; in the assay with CAKI-1 renal, 1.19 µM; with OVCAR-4 ovarian it was 0.344 µM; in the assay on HL-60(TB) leukemia it was greater than 100 µM; in the assay with SR leukemia, greater than 100 µM; in the assay with CCRF-CEM leukemia it was greater than 100 µM. In addition, the TGI stood at 0.175 µM in the assay with BT-549 breast and 0.29 µM in the assay with LOX IMVI melanoma.
Take `Cc1c(Cl)nc(Nc2nc3ccccc3[nH]2)nc1Cl`: the TGI with IGROV1 ovarian was greater than 100 µM; in the assay on A498 renal, greater than 100 µM; in the assay on U251 CNS, greater than 100 µM; in the assay with SW-620 colon, greater than 100 µM; in the assay on RPMI-8226 leukemia, greater than 100 µM; in the assay on HT29 colon, 89 µM. In addition, the TGI was greater than 100 µM in the assay on SK-MEL-28 melanoma; greater than 100 µM in the assay on UACC-257 melanoma; greater than 100 µM in the assay on T-47D breast; 71.9 µM in the assay with CAKI-1 renal; 76.5 µM in the assay on OVCAR-4 ovarian; greater than 100 µM with HL-60(TB) leukemia. Also, the TGI in the assay with SR leukemia and in the assay on BT-549 breast was greater than 100 µM each time.
With `O=C1CCC2(CC1CC(Sc1ccccc1)Sc1ccccc1)OCCO2` (configuration not stated), the TGI in the assay on HCC-2998 colon, in the assay on IGROV1 ovarian, with A498 renal, with U251 CNS, in the assay with SW-620 colon and with RPMI-8226 leukemia was greater than 100 µM in each case. For the same compound, the TGI with HT29 colon was greater than 100 µM; with SK-MEL-28 melanoma, greater than 100 µM; in the assay on UACC-257 melanoma it was greater than 100 µM; with T-47D breast, 97.3 µM; in the assay with CAKI-1 renal, greater than 100 µM; in the assay with OVCAR-4 ovarian, greater than 100 µM. The TGI in the assay with HL-60(TB) leukemia was 46 µM; in the assay with MDA-MB-231 breast, greater than 100 µM; in the assay with SR leukemia, 87.5 µM; with CCRF-CEM leukemia, greater than 100 µM; in the assay with LOX IMVI melanoma it was greater than 100 µM.
As for `CCOC(=O)c1cc(-c2cc(OC)c(OC)c([N+](=O)[O-])c2)c([N+](=O)[O-])n1C`, the TGI in the assay with HCC-2998 colon, in the assay with IGROV1 ovarian, with U251 CNS, in the assay with HT29 colon, in the assay on UACC-257 melanoma and with OVCAR-4 ovarian was greater than 10 µM each time. The TGI in the assay on HL-60(TB) leukemia, in the assay on SR leukemia, in the assay on CCRF-CEM leukemia and in the assay with BT-549 breast was greater than 10 µM each time.
On to `CCCN1C(=O)CC(C)N(Cc2ccccc2Cl)C1=S` (configuration not stated), for which the TGI was greater than 100 µM in the assay on IGROV1 ovarian; 47 µM in the assay on A498 renal; 67.8 µM in the assay with U251 CNS; greater than 100 µM in the assay with SW-620 colon; 70.4 µM in the assay with RPMI-8226 leukemia; greater than 100 µM in the assay on HT29 colon. In addition, the TGI is 62.4 µM in the assay with SK-MEL-28 melanoma; 38 µM in the assay on UACC-257 melanoma; 44.1 µM in the assay on T-47D breast; greater than 100 µM in the assay with CAKI-1 renal; greater than 100 µM in the assay with OVCAR-4 ovarian; greater than 100 µM in the assay with HL-60(TB) leukemia. Also, the TGI in the assay with MDA-MB-231 breast is 97 µM; in the assay with CCRF-CEM leukemia it was greater than 100 µM; in the assay on BT-549 breast, 57.5 µM; in the assay with LOX IMVI melanoma, 54.9 µM.
On to `O=C(c1ccco1)N1CCCN(C(=O)c2ccco2)C1=S`, for which the TGI with IGROV1 ovarian, in the assay with A498 renal, in the assay on U251 CNS, with SW-620 colon, in the assay with RPMI-8226 leukemia and in the assay on HT29 colon was greater than 100 µM in each case. The TGI in the assay on SK-MEL-28 melanoma is greater than 100 µM; in the assay with UACC-257 melanoma, greater than 100 µM; in the assay on T-47D breast it was 93.3 µM; with CAKI-1 renal it was greater than 100 µM; with HL-60(TB) leukemia, greater than 100 µM; in the assay on MDA-MB-231 breast, greater than 100 µM. Also, the TGI with CCRF-CEM leukemia, with BT-549 breast and in the assay on LOX IMVI melanoma was greater than 100 µM in each case.
As to `Cn1c(=O)c(C(=O)Nc2nc(C34CC5CC(CC(C5)C3)C4)cs2)c(O)c2ccccc21`, the TGI with HCC-2998 colon, with IGROV1 ovarian, with A498 renal, with U251 CNS, in the assay on SW-620 colon and in the assay with RPMI-8226 leukemia was greater than 100 µM throughout. The TGI in the assay with HT29 colon, in the assay with SK-MEL-28 melanoma, in the assay on UACC-257 melanoma, in the assay on CAKI-1 renal, with OVCAR-4 ovarian and with HL-60(TB) leukemia was greater than 100 µM each time. The TGI in the assay with MDA-MB-231 breast, with SR leukemia, in the assay on CCRF-CEM leukemia, with BT-549 breast and in the assay on LOX IMVI melanoma was greater than 100 µM each time.
